{"source": "patent US7060725B2", "about": "“Substituted sulfamate anticonvulsant derivatives” (Janssen Pharmaceutica N.V., priority 2002, dated 2006)", "key": {"[1]": {"test_system": "maximal electroshock seizure (MES-induced seizure spread)", "experiment": "Maximal electroshock seizure (MES) test, rat", "type": "in vivo, rats", "description": "Anticonvulsant activity was determined using the standard MES model for generalized tonic-clonic seizures (Swinyard E A, Woodhead J H, White H S, Franklin M R, In: […], Meldrum […], Dreifuss F E eds. Antiepileptic drugs. New York: Raven Press, 1989:85-102). An electric stimulus of 0.2 sec duration, 60 Hz, 50 mA in mice, 150 mA in rats, was delivered via corneal electrodes primed with an electrolyte solution containing an anesthetic agent (0.5% tetracaine hydrochloride in 0.9% saline). Mice or rats were randomly selected into control and test groups. The animals were dosed with vehicle or test compound, at varying concentrations. Mice were subjected to the electrical stimulus at 30 minutes and 4 hours following administration of test compound. […] Abolition of the hind limb tonic extensor component was an indication of the test compound's ability to inhibit MES-induced seizure spread. […] A probit analysis (Finney D J. Probit Analysis. Cambridge, England: Cambridge University Press, 1971) was used to calculate the ED50. Following the rat procedure described above, representative compounds of the instant invention were tested for biological activity in the rat, with results as listed in Table 6 and 7. Rat activity is listed as number of rats active/total number of rats tested @ time after administration of the test compound."}, "[2]": {"test_system": "maximal electroshock seizure (MES-induced seizure spread)", "experiment": "Maximal electroshock seizure (MES) test, mouse", "type": "in vivo, mice", "details": "for Mouse Activity (number of mice active/total number of mice tested): 300 mg/kg", "description": "Anticonvulsant activity was determined using the standard MES model for generalized tonic-clonic seizures (Swinyard E A, Woodhead J H, White H S, Franklin M R, In: Levy R H, Mattson R H, Meldrum B S, Penry J K, Dreifuss F E eds. Antiepileptic drugs. New York: Raven Press, 1989:85–102).\nAn electric stimulus of 0.2 sec duration, 60 Hz, 50 mA in mice, 150 mA in rats, was delivered via corneal electrodes primed with an electrolyte solution containing an anesthetic agent (0.5% tetracaine hydrochloride in 0.9% saline).\nMice or rats were randomly selected into control and test groups. The animals were dosed with vehicle or test compound, at varying concentrations. […] Rats were subjected to electrical stimulus at time intervals between 15 minutes and 4 hours following administration of test compound. Abolition of the hind limb tonic extensor component was an indication of the test compound's ability to inhibit MES-induced seizure spread.\nThe ED50 (the calculated dose required to block the hindlimb tonic-extensor component of the maximal electroshock seizure in 50% of the animals tested) was calculated. A probit analysis (Finney D J. Probit Analysis. Cambridge, England: Cambridge University Press, 1971) was used to calculate the ED50.\nFollowing the mouse procedure described above, representative compounds of the instant invention were tested for biological activity in the mouse, with results as listed in Table 5. Mouse activity is listed as number of mice active/total number of mice tested @ time after administration of the test compound."}}, "data": [{"smiles": "C=CCNS(=O)(=O)OC[C@@]12OC[C@H]3OC(C)(C)OC3[C@@H]1OC(C)(C)O2", "note": "(stereo partly drawn) [Compound 2, N-allyl-2,3:4,5-bis-O-(1-methylethylidene)-β-D-fructopyranose sulfamate]", "values": [{"measurement": "ED50", "setting": "[1]; @ 2 hrs", "result": "11.89 @ 2 hrs m/k"}, {"measurement": "Rat Activity (oral) (number of rats active/total number of rats tested)", "setting": "[1]; 8 mg/kg, @ 2 hrs", "result": "3/4 @ 2 hrs"}, {"measurement": "Rat Activity (oral) (number of rats active/total number of rats tested)", "setting": "[1]; 8 mg/kg, @ 4 hrs", "result": "2/4 @ 4 hrs"}, {"measurement": "Rat Activity (oral) (number of rats active/total number of rats tested)", "setting": "[1]; 8 mg/kg, @ 6 hrs", "result": "1/4 @ 6 hrs"}, {"measurement": "Rat Activity (oral) (number of rats active/total number of rats tested)", "setting": "[1]; 8 mg/kg, @ 8 hrs", "result": "1/4 @ 8 hrs"}, {"measurement": "Rat Activity (oral) (number of rats active/total number of rats tested)", "setting": "[1]; 20 mg/kg, @ 0.5 hrs", "result": "1/4 @ 0.5 hrs"}, {"measurement": "Rat Activity (oral) (number of rats active/total number of rats tested)", "setting": "[1]; 20 mg/kg, @ 2 hrs", "result": "2/2 @ 2 hrs"}, {"measurement": "Rat Activity (oral) (number of rats active/total number of rats tested)", "setting": "[1]; 20 mg/kg, @ 4 hrs", "result": "1/2 @ 4 hrs"}, {"measurement": "Rat Activity (oral) (number of rats active/total number of rats tested)", "setting": "[1]; 20 mg/kg, @ 6 hrs", "result": "1/2 @ 6 hrs"}, {"measurement": "Rat Activity (oral) (number of rats active/total number of rats tested)", "setting": "[1]; 200 mg/kg, @ 1 hr", "result": "3/8 @ 1 hr"}, {"measurement": "Rat Activity (oral) (number of rats active/total number of rats tested)", "setting": "[1]; 200 mg/kg, @ 2 hrs", "result": "4/8 @ 2 hrs"}, {"measurement": "Rat Activity (oral) (number of rats active/total number of rats tested)", "setting": "[1]; 200 mg/kg, @ 4 hrs", "result": "2/8 @ 4 hrs"}, {"measurement": "Rat Activity (oral) (number of rats active/total number of rats tested)", "setting": "[1]; 200 mg/kg, @ 6 hrs", "result": "1/8 @ 6 hrs"}]}, {"smiles": "CC1(C)OC2COC3(COS(=O)(=O)NCCBr)OC(C)(C)OC3C2O1", "note": "(stereo not shown) [Compound 3]", "values": [{"measurement": "Mouse Activity", "setting": "[2]; dosage 30, 100, 300 mg/kg", "result": "No Activity"}, {"measurement": "Rat Activity (oral) (number of rats active/total number of rats tested)", "setting": "[1]; 30 mg/kg, @ 1 hr", "result": "1/4 @ 1 hr"}, {"measurement": "Rat Activity (oral) (number of rats active/total number of rats tested)", "setting": "[1]; 30 mg/kg, @ 2 hrs", "result": "2/4 @ 2 hrs"}]}, {"smiles": "CCOC(=O)CCNS(=O)(=O)OCC12OCC3OC(C)(C)OC3C1OC(C)(C)O2", "note": "(stereo not shown) [Compound 4]", "values": [{"measurement": "Mouse Activity", "setting": "[2]; dosage 30, 100, 300 mg/kg", "result": "No Activity"}, {"measurement": "Rat Activity (oral) (number of rats active/total number of rats tested)", "setting": "[1]; 30 mg/kg, @ 1 hr", "result": "1/4 @ 1 hr"}]}, {"smiles": "COC(=O)CNS(=O)(=O)OCC12OCC3OC(C)(C)OC3C1OC(C)(C)O2", "note": "(stereo not shown) [Compound 5]", "values": [{"measurement": "Mouse Activity", "setting": "[2]; dosage 30, 100, 300 mg/kg", "result": "No activity"}, {"measurement": "ED50", "setting": "[1]; @ 2 hrs", "result": ">80 @ 2 hrs m/k"}, {"measurement": "Rat Activity (oral) (number of rats active/total number of rats tested)", "setting": "[1]; 30 mg/kg, @ 2 hrs", "result": "3/4 @ 2 hrs"}, {"measurement": "Rat Activity (oral) (number of rats active/total number of rats tested)", "setting": "[1]; 30 mg/kg, @ 4 hrs", "result": "1/4 @ 4 hrs"}]}, {"smiles": "CC1(C)OC2COC3(COS(=O)(=O)N[Si](c4ccccc4)(c4ccccc4)c4ccccc4)OC(C)(C)OC3C2O1", "note": "(stereo not shown) [Compound 6]", "values": [{"measurement": "Mouse Activity", "setting": "[2]; dosage 30, 100, 300 mg/kg", "result": "No activity"}]}, {"smiles": "COC(=O)CCCNS(=O)(=O)OCC12OCC3OC(C)(C)OC3C1OC(C)(C)O2", "note": "(stereo not shown) [Compound 8]", "values": [{"measurement": "Mouse Activity (number of mice active/total number of mice tested)", "setting": "[2]; @ 0.5 hrs after administration", "result": "1/1 @ 0.5 hrs"}, {"measurement": "Mouse Activity", "setting": "[2]; dosage 30, 100 mg/kg", "result": "No activity"}]}, {"smiles": "CC1(C)OC2[C@@H](CO[C@@]3(COS(=O)(=O)NO)OC(C)(C)O[C@@H]23)O1", "note": "(stereo partly drawn) [Compound 9, N-hydroxy-2,3:4,5-bis-O-(1-methylethylidene)-β-D-fructopyranose sulfamate]", "values": [{"measurement": "Mouse Activity (number of mice active/total number of mice tested)", "setting": "[2]; @ 4 hrs after administration", "result": "1/1 @ 4 hrs"}, {"measurement": "Mouse Activity", "setting": "[2]; dosage 30 mg/kg", "result": "No activity"}, {"measurement": "ED50", "setting": "[1]; @ 4 hrs", "result": "68.72 @ 4 hrs m/k"}, {"measurement": "Rat Activity (oral) (number of rats active/total number of rats tested)", "setting": "[1]; 30 mg/kg, @ 1 hr", "result": "1/4 @ 1 hr"}, {"measurement": "Rat Activity (oral) (number of rats active/total number of rats tested)", "setting": "[1]; 30 mg/kg, @ 2 hrs", "result": "2/4 @ 2 hrs"}, {"measurement": "Rat Activity (oral) (number of rats active/total number of rats tested)", "setting": "[1]; 30 mg/kg, @ 4 hrs", "result": "1/4 @ 4 hrs"}]}, {"smiles": "CONS(=O)(=O)OCC12OCC3OC(C)(C)OC3C1OC(C)(C)O2", "note": "(stereo not shown) [Compound 10]", "values": [{"measurement": "Mouse Activity (number of mice active/total number of mice tested)", "setting": "[2]; @ 0.5 hrs after administration", "result": "1/1 @ 0.5 hrs"}, {"measurement": "Mouse Activity (number of mice active/total number of mice tested)", "setting": "[2]; @ 4 hrs after administration", "result": "1/1 @ 4 hrs"}, {"measurement": "Mouse Activity", "setting": "[2]; dosage 30, 100 mg/kg", "result": "No activity"}]}]}
